Results reported in patent US4214093A, “Amino- or guanidino-1,2,3,4-tetrahydro-1-naphthoic esters” (Torii & Co., Ltd., priority 1977, dated 1980).
Where two headings read alike, the source gives them in different places.

How the values were obtained:
Trypsin = biological target: T1, Trypsin (Bos taurus, UniProt P00760); test: Inhibitory effect on ester-hydrolyzing activity of trypsin (TAMe substrate); type: biochemical; settings: for IC50: pH 8.6, 37° C., Table 4 bracketed value, read-out: Trypsin ID50; for inhibition at 1000 µM: read-out: Trypsin percent inhibition
T1 sequence (P00760 24-246): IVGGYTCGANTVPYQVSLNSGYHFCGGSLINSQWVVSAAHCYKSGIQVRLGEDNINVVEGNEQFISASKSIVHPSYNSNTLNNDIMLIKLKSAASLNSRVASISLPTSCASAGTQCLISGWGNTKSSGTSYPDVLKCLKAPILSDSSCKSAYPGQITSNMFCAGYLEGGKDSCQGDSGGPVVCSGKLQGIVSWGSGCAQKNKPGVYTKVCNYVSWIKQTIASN
Experimental: (§1) The enzyme-inhibitory activities in vitro of the compounds of this invention were measured by the following procedure according to the method of M. Muramatsu et al. [[…]. […] After the incubation, 1.5 ml of 2 M alkaline hydroxylamine was added and thoroughly mixed, and allowed to stand at room temperature for 15 minutes.

Human Cl Esterase = biological target: T2, Human Cl Esterase (Homo sapiens, UniProt P09871); test: Inhibitory effect on ester-hydrolyzing activity of human Cl esterase (ATEe substrate); type: biochemical; settings: for inhibition at 1000 µM: read-out: Cl-esterase percent inhibition; for IC50: pH 7.4, Table 4 bracketed value, read-out: Cl-esterase ID50
T2 sequence (P09871 438-688 limits assumed): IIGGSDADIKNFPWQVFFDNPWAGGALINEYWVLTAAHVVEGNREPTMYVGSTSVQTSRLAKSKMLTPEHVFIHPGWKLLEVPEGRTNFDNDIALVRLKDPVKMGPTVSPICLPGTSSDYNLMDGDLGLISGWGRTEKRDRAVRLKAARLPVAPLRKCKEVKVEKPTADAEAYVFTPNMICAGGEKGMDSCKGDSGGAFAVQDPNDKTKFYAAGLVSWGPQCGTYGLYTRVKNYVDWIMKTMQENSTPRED
T2 sequence (P09871 16-437 partner limits assumed): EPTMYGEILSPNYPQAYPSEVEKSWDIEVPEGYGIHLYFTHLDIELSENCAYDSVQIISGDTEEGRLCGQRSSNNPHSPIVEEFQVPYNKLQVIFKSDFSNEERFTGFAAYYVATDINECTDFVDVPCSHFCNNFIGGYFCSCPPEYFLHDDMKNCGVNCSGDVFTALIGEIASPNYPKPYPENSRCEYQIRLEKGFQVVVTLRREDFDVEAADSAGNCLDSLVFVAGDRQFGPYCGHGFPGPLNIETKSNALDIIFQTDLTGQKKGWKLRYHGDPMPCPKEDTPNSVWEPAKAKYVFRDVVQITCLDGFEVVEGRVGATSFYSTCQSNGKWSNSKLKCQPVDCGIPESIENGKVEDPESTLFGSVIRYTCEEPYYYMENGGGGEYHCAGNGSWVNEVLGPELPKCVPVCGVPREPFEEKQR
Experimental: It was measured by using 0.1 ml of Cl esterase, 0.1 ml of 0.02 M sodium phosphate buffer solution (pH 7.4 ) and 10 μmoles of ATEe (acetyltyrosine ethyl ester) as substrate following the method described in (1).

Human Plasmin = Human Plasmin (Homo sapiens, UniProt P00747); test: Inhibitory effect on ester-hydrolyzing activity of human plasmin (TAMe substrate); type: biochemical; settings: for inhibition at 1000 µM: read-out: Plasmin percent inhibition; for IC50: Table 4 bracketed value, read-out: Plasmin ID50
Chain of Human Plasmin (P00747 581-810 limits assumed): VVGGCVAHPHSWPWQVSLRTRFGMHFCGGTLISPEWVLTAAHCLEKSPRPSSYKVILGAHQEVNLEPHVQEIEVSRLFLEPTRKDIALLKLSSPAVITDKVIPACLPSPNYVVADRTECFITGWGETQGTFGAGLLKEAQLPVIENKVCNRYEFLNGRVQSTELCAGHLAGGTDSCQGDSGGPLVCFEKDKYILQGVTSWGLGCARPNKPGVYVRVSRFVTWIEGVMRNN
Chain of Human Plasmin (P00747 97-580 partner limits assumed): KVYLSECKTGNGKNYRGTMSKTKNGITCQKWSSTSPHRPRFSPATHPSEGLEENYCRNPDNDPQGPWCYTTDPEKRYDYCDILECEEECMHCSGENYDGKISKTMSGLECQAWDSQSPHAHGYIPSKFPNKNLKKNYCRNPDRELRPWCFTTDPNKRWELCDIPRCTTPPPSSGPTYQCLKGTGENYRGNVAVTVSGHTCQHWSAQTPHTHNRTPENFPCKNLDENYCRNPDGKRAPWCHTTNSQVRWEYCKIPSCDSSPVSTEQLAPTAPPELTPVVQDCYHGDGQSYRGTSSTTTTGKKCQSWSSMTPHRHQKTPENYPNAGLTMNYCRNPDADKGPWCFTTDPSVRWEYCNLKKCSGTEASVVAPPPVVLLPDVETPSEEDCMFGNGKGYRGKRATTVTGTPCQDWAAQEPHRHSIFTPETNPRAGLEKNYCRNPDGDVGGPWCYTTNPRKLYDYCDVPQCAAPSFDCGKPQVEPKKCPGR
Experimental: as §1, with “minutes. […] It was measured by using 0.1 ml of plasmin (generated by activation of plasminogen with streptokinase) and TAMe as substrate following the method described in (1).” for “minutes.”

Bovine Thrombin = Bovine Thrombin (Bos taurus, UniProt P00735); test: Inhibitory effect on ester-hydrolyzing activity of bovine thrombin (TAMe substrate); type: biochemical; settings: for inhibition at 1000 µM: at 10^-3 M, in vitro, TAMe, read-out: Thrombin percent inhibition
Experimental: The enzyme-inhibitory activities in vitro of the compounds of this invention were measured by the following procedure according to the method of M. Muramatsu et al. [M. Muramatsu, T. Onishi, S. Makino, Y. Hayashi and S. Fujii: J. Biochem., 58, 214 (1965)]
To 0.1 ml of trypsin (5 μg/ml) were added 0.5 ml of 0.1 M borate buffer solution (pH 8.6) containing 10 mM CaCl2, and 0.1 ml of a varying concentration of an inhibitor solution, and preincubation was carried out at 37° C. for 5 minutes. Then, 10 μmoles of the substrate, TAMe (tosylarginine methyl ester), was added, and incubation was preformed at 37° C. for 30 minutes.
After the incubation, 1.5 ml of 2 M alkaline hydroxylamine was added and thoroughly mixed, and allowed to stand at room temperature for 15 minutes. Then, 1.0 ml of each of 18% trichloroacetic acid, 4 N HCl and 10% FeCl3 was added and thoroughly mixed. If necessary, the mixture was centrifuged at 3,000 rpm for 10 minutes, and the absorbance of the supernatant was measured at 530 nm.
It was measured by using 0.4 ml of bovine thrombin […], 0.02 M sodium phosphate buffer solution (pH 7.4) and TAMe as substrate following the method described in (1).

thrombin = test: Inhibitory activity on thrombus formation: protection from lethal thrombin injection in mice; type: in vivo, mice (ddY strain); settings: 10 minutes before thrombin 300 NIH units/kg i.v., No. 91 in 2.5% gum arabic
Experimental: White male mice (ddY strain), 4 weeks age and weighing 18-27 g, were used throughout the experiments. […] The intravenous injection of 300 NIH units/kg of thrombin over 30 seconds into mice was lethal to all animals. The compounds were intraperitoneally administered in doses of 1, 10, and 100 mg/kg in saline unless otherwise described.
Compounds were intraperitoneally administered 10 minutes before thrombin injection. Compound No. 91 was dissolved in 2.5% gum arabic.

Human Plasma Kallikrein = Human Plasma Kallikrein (Homo sapiens, UniProt P03952); test: Inhibitory effect on ester-hydrolyzing activity of human plasma kallikrein (TAMe substrate); type: biochemical; settings: for IC50: Table 4 bracketed value, read-out: Kallikrein ID50; for inhibition at 1000 µM: read-out: Kallikrein percent inhibition
Chain of Human Plasma Kallikrein (P03952 391-638 limits assumed): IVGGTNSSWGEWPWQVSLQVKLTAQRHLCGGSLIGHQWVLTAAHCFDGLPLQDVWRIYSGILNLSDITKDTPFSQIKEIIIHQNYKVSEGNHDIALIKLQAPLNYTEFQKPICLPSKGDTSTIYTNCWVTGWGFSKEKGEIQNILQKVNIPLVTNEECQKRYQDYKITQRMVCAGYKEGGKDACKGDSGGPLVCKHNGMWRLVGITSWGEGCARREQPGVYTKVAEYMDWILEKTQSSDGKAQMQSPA
Chain of Human Plasma Kallikrein (P03952 20-390 partner limits assumed): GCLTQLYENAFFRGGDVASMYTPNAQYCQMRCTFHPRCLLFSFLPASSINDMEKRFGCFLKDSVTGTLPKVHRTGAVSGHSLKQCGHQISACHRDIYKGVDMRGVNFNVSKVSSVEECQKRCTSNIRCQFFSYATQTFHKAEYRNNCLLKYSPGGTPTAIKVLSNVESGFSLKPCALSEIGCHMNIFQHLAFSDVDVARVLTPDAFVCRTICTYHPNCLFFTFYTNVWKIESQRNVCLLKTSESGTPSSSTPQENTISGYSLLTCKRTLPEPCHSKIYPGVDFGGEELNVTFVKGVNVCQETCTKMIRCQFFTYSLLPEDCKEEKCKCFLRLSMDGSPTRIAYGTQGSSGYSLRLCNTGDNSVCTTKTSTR
Experimental: as §1

Row | SMILES | IC50 (Trypsin; in vitro, TAMe) [µM] | inhibition at 1000 µM (Human Cl Esterase) [%] | inhibition at 1000 µM (Human Plasmin; at 10^-3 M, in vitro, TAMe) [%] | IC50 (Bovine Thrombin) [µM] | IC50 (Human Plasma Kallikrein; in vitro, TAMe) [µM] | IC50 (Human Plasmin; in vitro, TAMe) [µM] | inhibition at 1000 µM (Human Plasma Kallikrein; at 10^-3 M, in vitro, TAMe) [%] | IC50 (Human Cl Esterase; in vitro, ATEe) [µM] | inhibition at 1000 µM (Bovine Thrombin) [%] | other results
1 | COc1ccc(OC(=O)C2CCCc3ccc(NC(=N)N)cc32)cc1.Cl (centres unmarked) [Compound 138, p-methoxyphenyl 7-guanidino-1,2,3,4-tetrahydro-1-naphthoate hydrochloride] | 1000 | 39 | 17 | 32 | 280 |  |  |  |  | % protective (thrombin; 1 mg/kg i.p.): 0%; Survived / Tested (thrombin; 1 mg/kg i.p.): 0/10; % protective (thrombin; 10 mg/kg i.p.): 20%; Survived / Tested (thrombin; 10 mg/kg i.p.): 2/10; % protective (thrombin; 100 mg/kg i.p.): 30%; Survived / Tested (thrombin; 100 mg/kg i.p.): 3/10
2 | CN(C)C(=O)COC(=O)Cc1ccc(OC(=O)C2CCCc3ccc(N)cc32)cc1 (centres unmarked) [Compound 101] | 110 | 31.5 |  | 300 |  | 48 | 34.4 |  |  | 
3 | N=C(N)Nc1cccc2c1CCCC2C(=O)Oc1cccc2ccccc12 (centres unmarked) [Compound 131] | 830 |  | 13.8 |  | 1000 |  |  | 410 | < 3.2 | 
4 | CN(C)C(=O)COC(=O)c1ccc(OC(=O)C2CCCc3ccc(N)cc32)cc1 (centres unmarked) [Compound 100] | 190 | 42 |  | 40 |  | 53 | 36 |  |  | 
5 | Nc1cccc2c1CCCC2C(=O)Oc1ccc(OC(=O)C2CCCc3c(N)cccc32)cc1 (centres unmarked) [Compound 78] | 36 |  | < 3.2 |  | 360 |  |  |  | 24.4 | inhibition at 1000 µM (Human Cl Esterase; at 10^-3 M, in vitro, ATEe): 15.2%
6 | COC(=O)c1ccc(OC(=O)C2CCCc3ccc(N)cc32)cc1 (centres unmarked) [Compound 91] | 17 | 27.4 | 40.7 | 210 |  |  |  |  |  | % protective (thrombin; 1 mg/kg i.p.): 0%; Survived / Tested (thrombin; 1 mg/kg i.p.): 0/10; % protective (thrombin; 10 mg/kg i.p.): 0%; Survived / Tested (thrombin; 10 mg/kg i.p.): 0/10; % protective (thrombin; 100 mg/kg i.p.): 20%; Survived / Tested (thrombin; 100 mg/kg i.p.): 2/10
7 | N=C(N)Nc1cccc2c1CCCC2C(=O)Oc1ccc(C(=O)OCc2ccccc2)cc1 (centres unmarked) [Compound 124] | 75 |  |  |  | 190 | 60 |  | 1000 | 45 | 
8 | COC(=O)c1cccc(OC(=O)C2CCCc3c(N)cccc32)c1 (centres unmarked) [Compound 64] | 61 |  | < 3.2 |  |  |  | 28 |  | 20.3 | inhibition at 1000 µM (Human Cl Esterase; at 10^-3 M, in vitro, ATEe): < 3.2%
9 | N=C(N)Nc1ccc2c(c1)C(C(=O)Oc1cccc3ccccc13)CCC2 (centres unmarked) [Compound 159] | 320 |  | 27.6 |  | 110 |  |  | 180 | 46 | 
10 | CCOC(=O)COC(=O)c1ccc(OC(=O)C2CCCc3ccc(N)cc32)cc1 (centres unmarked) [Compound 98] | 60 |  | 24.6 |  |  |  | < 3.2 |  | 40.5 | inhibition at 1000 µM (Human Cl Esterase; at 10^-3 M, in vitro, ATEe): < 3.2%
11 | Cc1ccc(OC(=O)C2CCCc3ccc(NC(=N)N)cc32)cc1 (centres unmarked) [Compound 136] |  |  |  | 900 |  |  |  | 540 |  | inhibition at 1000 µM (Trypsin): 17.5%; inhibition at 1000 µM (Human Plasmin): < 3.2%; inhibition at 1000 µM (Human Plasma Kallikrein): < 3.2%
12 | N=C(N)Nc1cccc2c1CCCC2C(=O)Oc1cccc2c1CCCC2 (centres unmarked) [Compound 164] | 1000 |  | 46.1 |  | 1000 |  |  | 400 | < 3.2 | 
13 | N=C(N)Nc1ccc2c(c1)C(C(=O)Oc1cccc3c1CCCC3)CCC2 (centres unmarked) [Compound 167] |  |  |  |  | 200 | 1000 |  | 420 | < 3.2 | inhibition at 1000 µM (Trypsin; at 10^-3 M, in vitro, TAMe): 44.8%
14 | N=C(N)Nc1cccc2c1CCCC2C(=O)Oc1ccc(C(=O)OCC(N)=O)cc1 (centres unmarked) [Compound 126] | 75 | 30.6 |  | 290 |  | 580 | 46.9 |  |  | 
15 | COC(=O)c1cccc(OC(=O)C2CCCc3ccc(N)cc32)c1 (centres unmarked) [Compound 92] | 98 | 27.3 | < 3.2 | 1000 |  |  | < 3.2 |  |  | 
16 | NC(=O)COC(=O)c1ccc(OC(=O)C2CCCc3c(N)cccc32)cc1 (centres unmarked) [Compound 71] | 31 | 30.6 |  | 62 |  | 54 | 23.4 |  |  | 
17 | N#Cc1ccc(OC(=O)C2CCCc3c(NC(=N)N)cccc32)cc1 (centres unmarked) [Compound 162] |  | 26.4 | 49 | 1000 | 1000 |  |  |  |  | inhibition at 1000 µM (Trypsin; at 10^-3 M, in vitro, TAMe): 44.2%
18 | CCOC(=O)COC(=O)c1ccc(OC(=O)C2CCCc3c(N)cccc32)cc1 (centres unmarked) [Compound 70] | 52 |  | 26.2 |  |  |  | 14.1 |  | 22 | inhibition at 1000 µM (Human Cl Esterase; at 10^-3 M, in vitro, ATEe): < 3.2%
19 | COc1cccc(OC(=O)C2CCCc3ccc(NC(=N)N)cc32)c1 (centres unmarked) [Compound 139] |  |  |  | 260 |  | 1000 |  | 450 |  | inhibition at 1000 µM (Trypsin): 46%; inhibition at 1000 µM (Human Plasma Kallikrein): 36.7%
20 | CCOC(=O)COC(=O)CCc1ccc(OC(=O)C2CCCc3ccc(NC(=N)N)cc32)cc1 (centres unmarked) [Compound 157] |  |  |  | 120 |  | 210 |  | 420 |  | inhibition at 1000 µM (Trypsin): 48.8%; inhibition at 1000 µM (Human Plasma Kallikrein): 48.5%
21 | CCOC(=O)c1ccc(OC(=O)C2CCCc3ccc(N)cc32)cc1 (centres unmarked) [Compound 94] | 46 |  | 16.6 |  |  |  | 25 |  | 42.9 | inhibition at 1000 µM (Human Cl Esterase; at 10^-3 M, in vitro, ATEe): 3.2%
